Assays:
Assay in all cases: Broth dilution MIC
Type in all cases: cell-based
Details in all cases: Mueller-Hinton broth, 18 hours at 35° C.
[1] = tested on: CNS GC 4537
Method: (§1) The in vitro antibacterial activity of AA-896-A1, AA-896-A2, AA-896-A3, AA-896-A4, AA-896-A5, AA-896-B1, AA-896-B2, AA-896-B3, AA-896-B4, AA-896-B5, AA-896-B6, AA-896-B7, AA-896-C1, AA-896-C2, AA-896-C3, AA-896-C4, AA-896-D1, AA896-D2 and AA-896-D3 is determined against a spectrum of Gram-positive and Gram-negative bacteria by a standard broth dilution method. Serial dilution of the compounds are made in Mueller-Hinton broth and inoculated with a bacterial suspension. The lowest concentration of compound that inhibited the growth of a bacterial strain after 18 hours of incubation at 35° C. is reported as the minimal inhibitory concentration (MIC) for that strain.

[2] = tested on: CNS GC 4538
Method: as §1

[3] = tested on: CNS GC 4547
Method: as §1

[4] = tested on: E. cloacae GC 3783
Method: as §1

[5] = tested on: E. coli GC 2203
Method: as §1

[6] = tested on: E. coli GC 3226
Method: as §1

[7] = tested on: E. coli GC 4559
Method: as §1

[8] = tested on: E. coli GC 4560
Method: as §1

[9] = tested on: E. faecalis GC 2242
Method: as §1

[10] = tested on: E. faecalis GC 4555
Method: as §1

[11] = tested on: E. faecalis GC 842
Method: as §1

[12] = tested on: K. pneumoniae GC 4534
Method: as §1

[13] = tested on: M. morganii GC 4531
Method: as §1

[14] = tested on: P. aeruginosa GC 2214
Method: as §1

[15] = tested on: P. aeruginosa GC 4532
Method: as §1

[16] = tested on: P. rettgeri GC 4530
Method: as §1

[17] = tested on: S. aureus GC 1131
Method: as §1

[18] = tested on: S. aureus GC 2216
Method: as §1

[19] = tested on: S. aureus GC 4536
Method: as §1

[20] = tested on: S. marcescens GC 4077
Method: as §1

[21] = tested on: E. faecalis GC 242
Method: as §1

SMILES | Antimicrobial Activity (MIC) [1] | Antimicrobial Activity (MIC) [2] | Antimicrobial Activity (MIC) [3] | Antimicrobial Activity (MIC) [4] | Antimicrobial Activity (MIC) [5] | Antimicrobial Activity (MIC) [6] | Antimicrobial Activity (MIC) [7] | Antimicrobial Activity (MIC) [8] | Antimicrobial Activity (MIC) [10] | Antimicrobial Activity (MIC) [11] | Antimicrobial Activity (MIC) [12] | Antimicrobial Activity (MIC) [13] | Antimicrobial Activity (MIC) [14] | Antimicrobial Activity (MIC) [15] | Antimicrobial Activity (MIC) [16] | Antimicrobial Activity (MIC) [17] | Antimicrobial Activity (MIC) [18] | Antimicrobial Activity (MIC) [19] | Antimicrobial Activity (MIC) [20] | other results
CC(C)CCCCC(=O)OC(C(C)C)C(NC(=O)C(NC(=O)NC(C(=O)O)C(C)C)C1CCNC(=N)N1)C(=O)NCCCNC(C(=O)O)C(OC1OC(CN)C(O)C1O)C1OC(n2ccc(=O)[nH]c2=O)C(O)C1O [AA-896-B7, 5-O-[5-Amino-5-deoxy-β-D-ribofuranosyl]-6-[[3-[2-[2-[[(1-carboxy-2-methylpropyl)-carbamoyl]amino]-2-(hexahydro-2-iminopyrimidin-4-yl)acetamido]-4-methyl-3-[(6-methylheptanoyl)oxy]pentanamido]propyl]amino]-1,6-dideoxy-1-(3,4-dihydro-2,4-dioxopyrimidin-1(2H)-yl)-β-D-heptofuranuronic acid] | >64 µg/mL | >64 µg/mL | >64 µg/mL | 16 µg/mL | >64 µg/mL | >64 µg/mL | 64 µg/mL | <=0.06 μg/ml | >64 µg/mL | >64 µg/mL | 64 µg/mL | >64 µg/mL | >64 µg/mL | >64 µg/mL | >64 µg/mL | >64 µg/mL | >64 µg/mL | >64 µg/mL | >64 µg/mL | Antimicrobial Activity (MIC) [9]: >64 µg/mL
COC1C(OC(C(NCCCNC(=O)C(NC(=O)C(NC(=O)NC(C(=O)O)C(C)C)C2CCNC(=N)N2)C(OC(=O)CCCCCC(C)C)C(C)C)C(=O)O)C2OC(n3ccc(=O)[nH]c3=O)C(O)C2O)OC(CN)C1O [AA-896-B4, 5-O-[5-Amino-5-deoxy-2-O-methyl-β-D-ribofuranosyl]-6-[[3-[2-[2-[[(1-carboxy-2-methyl-propyl)carbamoyl]amino]-2-(hexahydro-2-iminopyrimidin-4-yl)acetamido]-4-methyl-3-[(7-methyloctanoyl)oxy]pentanamido]propyl]amino]-1,6-dideoxy-1-(3,4-dihydro-2,4-dioxopyrimidin-1(2H)-yl)-β-D-heptofuranuronic acid] | 64 µg/mL | 32 µg/mL | >64 µg/mL | 8 µg/mL | 32 µg/mL | 64 µg/mL | 8 µg/mL | <=0.06 μg/ml | 64 µg/mL | >64 µg/mL | 16 µg/mL | >64 µg/mL | 32 µg/mL | 64 µg/mL | >64 µg/mL | 64 µg/mL | 64 µg/mL | 64 µg/mL | >64 µg/mL | Antimicrobial Activity (MIC) [21]: >64 µg/mL

— patent US7078195B2, “Antibiotics AA-896” (Wyeth Holdings Corporation, priority 2001, dated 2006)
